Marks after values point to notes of the source that are not given here.
Tests used:
[1] = system: yeast-induced hyperthermia; experiment: Anti-pyretic study, brewer's yeast-induced hyperthermia; type: in vivo, mice; settings: mean ±SEM; for Rectal temperature 30 min: 30 min after drug; for Rectal temperature 30 min / Rectal temperature 60 min / Rectal temperature 120 min: Compound 8 150 mg/kg; for Rectal temperature 30 min / Rectal temperature 60 min / Rectal temperature 120 min / Rectal temperature, Control: Sulindac 100 mg/kg; for Rectal temperature 60 min: 60 min after drug; for Rectal temperature 120 min: 120 min after drug; for Rectal temperature, Control: after yeast injection, pre-drug, groups Compound 8 150 mg/kg; for Rectal temperature, Normal: before yeast, groups later given Compound 8 150 mg/kg or Sulindac 100 mg/kg
Method: (§1) All animal experiments used healthy male albino rats (200 g-220 g) and mice. The animals were kept in standard plastic animal cages in groups of six animals each with a 12 hour light and dark cycle. The animals were acclimatized to laboratory conditions for a week prior to the experiments.
In an anti-pyretic study, hyperthermia was induced in mice by subcutaneous injection of 20 mL/kg of a 20% aqueous suspension of brewer's yeast in the back below of nape of the neck. The animals were fasted for 24 hours. Water was made available. Control rectal temperature was recorded 24 hours after the yeast injection to determine the pyretic response to yeast. Rectal temperature recordings were then taken 1 hour prior to drug administration in the fevered animals to serve as a pre drug control. […]

[2] = system: hot plate nociception; experiment: Analgesic activity by hot plate method; type: in vivo, mice; settings: Sulindac 100 mg/kg oral; for % Inhibition 30 min / Reaction Time 30 min / % Inhibition 60 min / Reaction Time 60 min / % Inhibition 120 min / Reaction Time 120 min: Compound 8 150 mg/kg; for Reaction Time 30 min / Reaction Time 60 min / Reaction Time 120 min / Reaction Time, Pre-drug: mean ±SEM; for Reaction Time, Pre-drug: pre-drug baseline, groups Compound 8 150 mg/kg
Method: as §1
In an analgesic activity by hot plate method study, animals were dropped gently on a hot plate maintained at […]. Reaction time was recorded as the interval extending from the instant the animal reached the hot plate until the moment the animal licked its forefeet or jumped off. […]

[3] = system: carrageenan-induced paw edema; experiment: Carrageenan induced paw edema; type: in vivo, rats; settings: Sulindac 100 mg/kg oral; for Paw volume before carrageenan: baseline, groups Compound 8 150 mg/kg, in mL (unit assumed)
Method: as §1
In a Carrageenan induced paw edema in rats study, Carrageenan sodium salt (0.05 mL of 1% BDH) was injected into the right hind foot of each rat (male or female, 200-220 g) under the plantar aponeurosis. The test group of was treated orally with a Sulindac derivative compound 1 hour before carrageenan injection. At the same time, the control group was given 5 mL/kg of normal saline and the reference group was given 100 mg/kg of an aqueous solution of sulindac. […] Inhibitory activity was calculated using the following:
[formula] where “B” is the mean paw volume of control rats after carrageenan injection, “Y” is the mean paw volume of control rats before the carrageenan injection, “X” is the mean paw volume of treated rats before carrageenan injection, and “A” is the mean paw volume of treated rats after the carrageenan injection.

[4] = system: ethanol-induced ulcer; experiment: Ulcer study using 80% ethanol (gastric mucosal damage score); type: in vivo, rats; settings: sulindac 100 mg/kg; for Ulcer Index: mean ±SEM; for % Inhibition (ulcer index): Cmpd 8 150 mg/kg, versus 80% EtOH alone
Method: as §1
In an ulcer study of sulindac derivatives using 80% ethanol, the ethanol-induced ulcer model was used to study gastro-protective activity of sulindac derivative Compound 8. Rats were grouped into five groups (n=6). Group I received 80% ethanol only and served as an ulcer control. Group II received 80% ethanol and sulindac (100 mg/kg) orally. […] Animals in Group IV received sulindac (100 mg/kg body weight) without any ethanol. […] Animals of all Groups were sacrificed 1 hour later under anesthesia and their stomachs were quickly removed for further studies. The stomach was opened along the greater curvature, washed with distilled water and cleaned gently by dipping in saline. The mucosal damage was assessed according to the following scoring system: redness=0.5, spot ulcer=1.0, hemorrhagic streaks=1.5, ulcer>3 but<5=2.0, ulcers>5=3.0. The mean score of each treated group minus the mean score of the control group was taken as the severity index of gastric mucosal damage. Results were calculated by ANOVA followed by Dunnett's multiple comparison test and are summarized in Table 7, represent mean±SEM; ***=p<0.001 (n=6).

[5] = system: gastric lesions induced by indomethacin; experiment: Gastric lesions induced by indomethacin; type: in vivo, rats; settings: for Ulcer Index: rats given indomethacin 30 mg/kg oral, Sulindac 100 mg/kg, Compound 8 150 mg/kg half an hour before, mean ±SEM
Method: as §1
In a study of the effect of sulindac derivatives on gastric lesions induced by indomethacin, a suspension of indomethacin in 1.0% carboxymethylcellulose (CMC) in water (6 mg/mL) at a dose of (30 mg/kg) body weight was administered orally to rats. Control rats were treated with the vehicle. Sulindac derivative Compound 8 was administered half an hour prior to indomethacin administration at a dose of 150 mg/kg.

[6] = system: malondialdehyde (MDA); experiment: Determination of malondialdehyde in stomach tissue; type: in vivo, rats; settings: Sulindac 100, Compound 8 150, mean ±SEM
Method: In a study for the determination of malondialdehyde, non-protein sulfhydryls, and total protein, stomach tissues were removed from rats, and each tissue was homogenized in 0.15M KCl to give a 10% w/v homogenate. Aliquots of homogenate (1 mL) were incubated at 37° C. for three hours in a metabolic shaker. Then 1 mL of 10% aqueous trichloroacetic acid was added to the homogenate and mixed. This suspension was then centrifuged at 4000 rpm for 10 min. […] The mixture was cooled and diluted with 1 mL of distilled water. The absorbance of the solution was then read at 535 nm. The content of malondialdehyde (MDA) (nmol/g) was then calculated by reference to a standard curve of MDA solution.

[7] = system: Total Protein (TP); experiment: Total protein in gastric juice; type: in vivo, rats; settings: Sulindac 100, Compound 8 150, mean ±SEM
Method: Total Protein (TP), or dissolved proteins in gastric juice, was estimated through alcohol precipitation. 90% alcohol was added to gastric juice at a 9:1 ratio, and then 0.1 ml of the alcoholic precipitate of gastric juice was dissolved in 1 ml of 0.1 N NaOH, and 0.05 ml of this suspension was placed in a test tube. 4 ml of an alkaline mixture was then added to the test tube and incubated at room temperature for 10 minutes. 0.4 ml of a phenol reagent was then added, and after a further 10 minutes, once color had developed, a reading was taken against a blank containing distilled water at 610 nm on a spectrophotometer. TP content was then calculated from a standard curve prepared with bovine albumin and expressed as g/L of gastric juice. Results were calculated by ANOVA followed by Dunnett's multiple comparison test and are summarized in Table 9, represent mean±SEM; **=p<0.01; ***=p<0.001 (n=6).

[8] = Compound 8 150 mg/kg, mean ±SEM
[9] = 5 hours, Compound 8 150 mg/kg, mean ±SEM
[10] = with 80% EtOH, Cmpd 8 150 mg/kg oral, sacrificed 1 hour later

| SMILES | Rectal temperature 30 min [1] | Rectal temperature 60 min [1] | Rectal temperature 120 min [1] | Rectal temperature, Control [1] | Rectal temperature, Normal [1] | % Inhibition 30 min [2] | Reaction Time 30 min [2] | % Inhibition 60 min [2] | Reaction Time 60 min [2] | % Inhibition 120 min [2] | Reaction Time 120 min [2] | Reaction Time, Pre-drug [2] | % Inhibition of paw edema after 3 hours ([3]; Compound 8 150 mg/kg) | Increased paw volume after 3 hours, Mean [3, 8] | Increased paw volume after 3 hours, Net [3, 8] | % Inhibition of paw edema after 5 hours ([3]; 5 hours, Compound 8 150 mg/kg) | Increased paw volume after 5 hours, Mean [3, 9] | Paw volume before carrageenan ([3]; mean ±SEM) | Ulcer Index [4, 10] | % Inhibition (ulcer index) ([4]; with 80% EtOH) | further results |
| --- | --- | --- | --- | --- | --- | --- | --- | --- | --- | --- | --- | --- | --- | --- | --- | --- | --- | --- | --- | --- | --- |
| CC1=C(CC(=O)N/N=C\c2ccc(N(C)C)cc2)c2cc(F)ccc2/C1=C\c1ccc([S+](C)[O-])cc1 (centres unmarked) [Compound 8] | 38.15 ± 0.10 °C | 37.83 ± 0.15 °C | 37.33 ± 0.12 °C | 38.38 ± 0.19 °C | 35.16 ± 0.10 °C | 15% | 7.66 ± 0.42 s | 47.50% | 9.83 ± 0.30 s | 67.50% | 11.16 ± 0.30 s | 6.66 ± 0.33 s | 50.52% | 1.34 ± 0.02 | 0.31 ± 0.03 | 50.54% | 1.33 ± 0.01 | 1.02 ± 0.02 | 4.33 ± 0.4*** | 40.90% | Increased paw volume after 5 hours, Net [3, 9]: 0.30 ± 0.02; Ulcer Index [5]: 22.16 ± 1.10; % Inhibition (ulcer index) ([5]; rats given indomethacin 30 mg/kg, Compound 8 150 mg/kg, versus indomethacin alone): 40.09%; MDA ([6]; drug alone, no ethanol): 1.06 ± 0.02 nmol/g; MDA ([6]; with 80% Ethanol 1 mL): 1.59 ± 0.06 nmol/g; TP ([7]; drug alone, no ethanol): 114.57 ± 1.89*** g/L; TP ([7]; with 80% Ethanol 1 mL): 100.99 ± 2.42*** g/L |
| CC1=C(CC(=O)O)c2cc(F)ccc2/C1=C\c1ccc([S+](C)[O-])cc1 (centres unmarked) [Sulindac] | 37.46 ± 0.14 °C | 37.16 ± 0.09 °C | 36.23 ± 0.08 °C | 38.21 ± 0.31 °C | 35.21 ± 0.11 °C | 41.30% | 10.83 ± 0.47 s | 54.34% | 11.83 ± 0.47 s | 86.95% | 14.33 ± 0.42 s | 7.66 ± 0.33 s | 65.18% | 1.26 ± 0.03 | 0.22 ± 0.01 | 65.02% | 1.25 ± 0.03 | 1.03 ± 0.03 | 6.83 ± 0.40 | 6.81% | Ulcer Index ([4]; drug alone, without ethanol, Compound 8 150 mg/kg oral): 1.33 ± 0.49; Ulcer Index [5]: 32.00 ± 3.86; MDA ([6]; drug alone, no ethanol): 1.31 ± 0.04 nmol/g; MDA ([6]; with 80% Ethanol 1 mL): 2.28 ± 0.11 nmol/g; TP ([7]; drug alone, no ethanol): 105.78 ± 1.43*** g/L; TP ([7]; with 80% Ethanol 1 mL): 93.81 ± 3.05*** g/L |

From US10329249B1, “Sulindac derivatives” (KING SAUD UNIVERSITY, priority 2018, dated 2019)
